Assay results from PubChem BioAssay AID1259407 (Chemical Carcinogenesis Research Information System (CCRIS), 2018).
Active and inactive are the calls of the source. The rule behind the calls is not given here.

Test system: CCRIS mutagenicity, Ames/micronucleus/aberration tests
Assay: CCRIS mutagenicity studies
[1] = Test System: MOUSE LYMPHOMA, Strain/Indicator: L5178Y (TK+/TK-), Metabolic Activation: NONE, Method: SUSPENSION/PLATE
[2] = Test System: MOUSE LYMPHOMA, Strain/Indicator: L5178Y (TK+/TK-), Metabolic Activation: RAT, LIVER, S-9, AROCLOR 1254, Method: SUSPENSION/PLATE
[3] = Test System: AMES SALMONELLA TYPHIMURIUM, Strain/Indicator: TA98, Metabolic Activation: NONE, Method: STANDARD PLATE
[4] = Test System: AMES SALMONELLA TYPHIMURIUM, Strain/Indicator: TA98, Metabolic Activation: RAT, LIVER, S-9, AROCLOR 1254, Method: STANDARD PLATE
[5] = Test System: AMES SALMONELLA TYPHIMURIUM, Strain/Indicator: TA100, Metabolic Activation: NONE, Method: STANDARD PLATE
[6] = Test System: AMES SALMONELLA TYPHIMURIUM, Strain/Indicator: TA100, Metabolic Activation: RAT, LIVER, S-9, AROCLOR 1254, Method: STANDARD PLATE

`O=C(O)CC[N+](=O)[O-]` was tested, and the mutagenic call (Test System: AMES SALMONELLA TYPHIMURIUM, Strain/Indicator: TA98, Metabolic Activation: HAMSTER, LIVER, S-9, AROCLOR 1254 (30%), Method: PREINCUBATION) was “inactive; negative”, the mutagenic call (Test System: AMES SALMONELLA TYPHIMURIUM, Strain/Indicator: TA98, Metabolic Activation: NONE, Method: PREINCUBATION) was “inactive; negative” and the mutagenic call (Test System: AMES SALMONELLA TYPHIMURIUM, Strain/Indicator: TA98, Metabolic Activation: RAT, LIVER, S-9, AROCLOR 1254 (30%), Method: PREINCUBATION) was “inactive; negative”. For the same compound, the mutagenic call (Test System: AMES SALMONELLA TYPHIMURIUM, Strain/Indicator: TA100, Metabolic Activation: HAMSTER, LIVER, S-9, AROCLOR 1254 (30%), Method: PREINCUBATION) was “active; positive”, the mutagenic call (Test System: AMES SALMONELLA TYPHIMURIUM, Strain/Indicator: TA100, Metabolic Activation: NONE, Method: PREINCUBATION) was “active; positive” and the mutagenic call (Test System: AMES SALMONELLA TYPHIMURIUM, Strain/Indicator: TA100, Metabolic Activation: RAT, LIVER, S-9, AROCLOR 1254 (30%), Method: PREINCUBATION) was “active; positive”. For the same compound, the mutagenic call (Test System: CHINESE HAMSTER OVARY, Strain/Indicator: CHO-K1-BH4 (HGPRT)/6-THIOGUANINE, Metabolic Activation: NONE) was “inactive; negative”, the mutagenic call (Test System: CHINESE HAMSTER OVARY, Strain/Indicator: CHO-K1-BH4 (HGPRT)/6-THIOGUANINE, Metabolic Activation: S-9) was “inactive; negative” and the mutagenic call (Test System: E. COLI, Strain/Indicator: WP2 UVRA, Metabolic Activation: HAMSTER, LIVER, S-9, AROCLOR 1254, Method: STANDARD PLATE) was “inactive; negative”. For the same compound, the mutagenic call (Test System: E. COLI, Strain/Indicator: WP2 UVRA, Metabolic Activation: HAMSTER, LIVER, S-9, Method: STANDARD PLATE) was “inactive; negative”, the mutagenic call (Test System: E. COLI, Strain/Indicator: WP2 UVRA, Metabolic Activation: MOUSE, LIVER, S-9, AROCLOR 1254, Method: STANDARD PLATE) was “inactive; negative” and the mutagenic call (Test System: E. COLI, Strain/Indicator: WP2 UVRA, Metabolic Activation: MOUSE, LIVER, S-9, Method: STANDARD PLATE) was “inactive; negative”. The mutagenic call (Test System: E. COLI, Strain/Indicator: WP2 UVRA, Metabolic Activation: NONE, Method: STANDARD PLATE) was “inactive; negative”, the mutagenic call (Test System: E. COLI, Strain/Indicator: WP2 UVRA, Metabolic Activation: RAT, LIVER, S-9, AROCLOR 1254, Method: STANDARD PLATE) was “inactive; negative” and the mutagenic call (Test System: E. COLI, Strain/Indicator: WP2 UVRA, Metabolic Activation: RAT, LIVER, S-9, Method: STANDARD PLATE) was “inactive; negative”. The mutagenic call [1] was “active; positive” and the mutagenic call [2] was “active; positive”.

In the case of `Clc1nnc(Cl)c2ccccc12`, the mutagenic call (Test System: AMES SALMONELLA TYPHIMURIUM, Strain/Indicator: TA98, Metabolic Activation: HAMSTER, LIVER, S-9, AROCLOR 1254, Method: STANDARD PLATE) is reported as “inactive; negative”, the mutagenic call [3] is reported as “inactive; negative” and the mutagenic call [4] is reported as “inactive; negative”. The mutagenic call (Test System: AMES SALMONELLA TYPHIMURIUM, Strain/Indicator: TA100, Metabolic Activation: HAMSTER, LIVER, S-9, AROCLOR 1254, Method: STANDARD PLATE) was “inactive; negative”, the mutagenic call [5] was “inactive; negative” and the mutagenic call [6] was “inactive; negative”. The mutagenic call (Test System: AMES SALMONELLA TYPHIMURIUM, Strain/Indicator: TA1535, Metabolic Activation: HAMSTER, LIVER, S-9, AROCLOR 1254, Method: STANDARD PLATE) was “inactive; negative”, the mutagenic call (Test System: AMES SALMONELLA TYPHIMURIUM, Strain/Indicator: TA1535, Metabolic Activation: NONE, Method: STANDARD PLATE) was “inactive; negative” and the mutagenic call (Test System: AMES SALMONELLA TYPHIMURIUM, Strain/Indicator: TA1535, Metabolic Activation: RAT, LIVER, S-9, AROCLOR 1254, Method: STANDARD PLATE) was “inactive; negative”. The mutagenic call (Test System: AMES SALMONELLA TYPHIMURIUM, Strain/Indicator: TA1537, Metabolic Activation: HAMSTER, LIVER, S-9, AROCLOR 1254, Method: STANDARD PLATE) was “inactive; negative”, the mutagenic call (Test System: AMES SALMONELLA TYPHIMURIUM, Strain/Indicator: TA1537, Metabolic Activation: NONE, Method: STANDARD PLATE) was “inactive; negative” and the mutagenic call (Test System: AMES SALMONELLA TYPHIMURIUM, Strain/Indicator: TA1537, Metabolic Activation: RAT, LIVER, S-9, AROCLOR 1254, Method: STANDARD PLATE) was “inactive; negative”. For the same compound, the mutagenic call (Test System: AMES SALMONELLA TYPHIMURIUM, Strain/Indicator: TA1538, Metabolic Activation: HAMSTER, LIVER, S-9, AROCLOR 1254, Method: STANDARD PLATE) was “inactive; negative”, the mutagenic call (Test System: AMES SALMONELLA TYPHIMURIUM, Strain/Indicator: TA1538, Metabolic Activation: NONE, Method: STANDARD PLATE) was “inactive; negative” and the mutagenic call (Test System: AMES SALMONELLA TYPHIMURIUM, Strain/Indicator: TA1538, Metabolic Activation: RAT, LIVER, S-9, AROCLOR 1254, Method: STANDARD PLATE) was “inactive; negative”. For the same compound, the mutagenic call [1] was “active; positive. reevaluation of results: inconclusive” and the mutagenic call [2] was “active; positive. reevaluation of results: positive”.

For `Oc1cc(Cl)c(Cl)cc1Cl`, the mutagenic call (Test System: AMES SALMONELLA TYPHIMURIUM, Strain/Indicator: TA97, Metabolic Activation: NONE, Method: STANDARD PLATE) was “active; positive”, the mutagenic call (Test System: AMES SALMONELLA TYPHIMURIUM, Strain/Indicator: TA97, Metabolic Activation: RAT, LIVER, S-9, AROCLOR 1254, Method: STANDARD PLATE) was “active; positive” and the mutagenic call (Test System: AMES SALMONELLA TYPHIMURIUM, Strain/Indicator: TA98, Metabolic Activation: NONE) was “inactive; negative”. For the same compound, the mutagenic call [3] was “active; positive”, the mutagenic call (Test System: AMES SALMONELLA TYPHIMURIUM, Strain/Indicator: TA98, Metabolic Activation: RAT, LIVER, S-9, AROCLOR 1254) was “inactive; negative” and the mutagenic call [4] was “active; positive”. The mutagenic call (Test System: AMES SALMONELLA TYPHIMURIUM, Strain/Indicator: TA100, Metabolic Activation: NONE) was “inactive; negative”, the mutagenic call [5] was “active; positive” and the mutagenic call (Test System: AMES SALMONELLA TYPHIMURIUM, Strain/Indicator: TA100, Metabolic Activation: RAT, LIVER, S-9, AROCLOR 1254) was “inactive; negative”. For the same compound, the mutagenic call [6] was “inactive; negative”, the mutagenic call (Test System: AMES SALMONELLA TYPHIMURIUM, Strain/Indicator: TA102, Metabolic Activation: NONE) was “inactive; negative” and the mutagenic call (Test System: AMES SALMONELLA TYPHIMURIUM, Strain/Indicator: TA102, Metabolic Activation: RAT, LIVER, S-9, AROCLOR 1254) was “inactive; negative”. The mutagenic call (Test System: AMES SALMONELLA TYPHIMURIUM, Strain/Indicator: TA104, Metabolic Activation: NONE) was “inactive; negative”, the mutagenic call (Test System: AMES SALMONELLA TYPHIMURIUM, Strain/Indicator: TA104, Metabolic Activation: NONE, Method: STANDARD PLATE) was “inactive; negative” and the mutagenic call (Test System: AMES SALMONELLA TYPHIMURIUM, Strain/Indicator: TA104, Metabolic Activation: RAT, LIVER, S-9, AROCLOR 1254) was “inactive; negative”. The mutagenic call (Test System: AMES SALMONELLA TYPHIMURIUM, Strain/Indicator: TA104, Metabolic Activation: RAT, LIVER, S-9, AROCLOR 1254, Method: STANDARD PLATE) was “inactive; negative” and the mutagenic call (Test System: CHINESE HAMSTER V-79, Strain/Indicator: V-79/6-THIOGUANINE, Metabolic Activation: NONE, Method: STANDARD PLATE) was “inactive; negative”.
